Results as given in US11203577B2, “Sulfonyl-structure-containing triazinone derivatives, their preparation methods and their uses in insect killing and/or bacterium killing” (Nankai University, priority 2017, dated 2021).

How the values were obtained:
[1] = system: Cercospora brown spot of peanut; experiment: In vitro fungicidal activity, PDA colony diameter; format: cell-based; conditions: 96 h, 50 mg/kg, inhibition of colony diameter, read-out: Fungicidal activity (%) Cercospora brown spot of peanut
Rice bakanae disease = experiment: In vitro fungicidal activity, PDA colony diameter; format: cell-based; conditions: 50 mg/kg, inhibition of colony diameter; read-out: Fungicidal activity (%) Rice bakanae disease
Watermelon anthracnose = experiment: In vitro fungicidal activity, PDA colony diameter; format: cell-based; conditions: 50 mg/kg, inhibition of colony diameter; read-out: Fungicidal activity (%) Watermelon anthracnose
Potato late blight = experiment: microbe, parasite or virus in culture; format: cell-based; conditions: Phytophthora infestans, 96 h, read-out: Fungicidal activity (%) Potato late blight
Wheat sheath blight = experiment: In vitro fungicidal activity, PDA colony diameter; format: cell-based; conditions: 50 mg/kg, inhibition of colony diameter; read-out: Fungicidal activity (%) Wheat sheath blight
Cucumber fusarium wilt = experiment: In vitro fungicidal activity, PDA colony diameter; format: cell-based; conditions: 96 h, 50 mg/kg, inhibition of colony diameter, read-out: Fungicidal activity (%) Cucumber fusarium wilt
Wheat head blight = experiment: whole plant or invertebrate; format: cell-based; conditions: Triticum aestivum, read-out: Fungicidal activity (%) Wheat head blight
Tomato early blight = experiment: In vitro fungicidal activity, PDA colony diameter; format: cell-based, Alternaria solani; conditions: 50 mg/kg, inhibition of colony diameter; read-out: Fungicidal activity (%) Tomato early blight
Apple ring rot = experiment: In vitro fungicidal activity, PDA colony diameter; format: cell-based; conditions: inhibition of colony diameter
Description: (§1) Here, the test is described in an example of Alternaria solani; it can be replaced by other fungi.
(§2) In vitro testing method: Alternaria solani is inoculated to a PDA culture medium and cultured for 7 days, a fungus dish with a diameter of […] is prepared on the periphery of the colony with a punch and inoculated to a PDA culture medium that contains pesticide at a concentration of 50 mg/kg and a PDA culture medium that doesn't contain the pesticide, and are cultured for 4 days respectively; then, the colony diameters are measured, and the inhibition percentages of the pesticides are calculated by comparing with the control sample.

[2] = system: Capsicum phytophthora blight; experiment: In vitro fungicidal activity, PDA colony diameter; format: cell-based; conditions: 96 h
Description: as §1, §2

Sclerotinia rot of colza = experiment: In vitro fungicidal activity, PDA colony diameter; format: cell-based; conditions: 96 h, 50 mg/kg, inhibition of colony diameter, read-out: Fungicidal activity (%) Sclerotinia rot of colza
Rice sheath blight = experiment: In vitro fungicidal activity, PDA colony diameter; format: cell-based; conditions: 50 mg/kg, inhibition of colony diameter; read-out: Fungicidal activity (%) Rice sheath blight
[3] = system: Corn southern leaf blight; experiment: In vitro fungicidal activity, PDA colony diameter; format: cell-based; conditions: 50 mg/kg, inhibition of colony diameter; read-out: Fungicidal activity (%) Corn southern leaf blight
Maize borers = experiment: Test of insecticidal activity against maize borers (leaf immersion); conditions: read-out: Mortalities (%) Maize borers
[4] = system: mosquito larvae (Culer pipiens pallens); experiment: Test of insecticidal activity against mosquito larvae (checked after 24 h); conditions: 24 h, read-out: Mortalities (%) against mosquito larvae
Description: Method of testing against mosquito larvae: the tested mosquito larvae are Culer pipiens pallens, a normal colony fed indoor. About 5 mg compound to be tested is weighed and loaded into a penicillin vial, 5 mL acetone (or an appropriate solvent) is added into the vial, and the vial is oscillated to dissolve the compound; thus, 1,000 ppm mother liquid is obtained. 1 mL mother liquid is weighed and added into a 100 mL beaker filled with 89 mL water, 10 mosquito larvae in the early stage of the 4th instar together with 10 mL feeding solution are poured into the beaker; thus, the concentration of the pesticide solution is 10 ppm (the pesticide solutions with other concentrations are attained by diluting the mother liquid by corresponding times). […] Water solution that contains 0.5 mL test solvent is used as a blank sample.

Cotton bollworms = experiment: Test of insecticidal activity against cotton bollworms (pesticide mixed into feedstuff); conditions: read-out: Mortalities (%) Cotton bollworms
Description: Method of testing against cotton bollworms: the pesticide is mixed into the feedstuff, i.e., 3 mL prepared solution is added into about 27 g freshly prepared feedstuff; thus, required concentration is obtained by diluting by 10 times.

Armyworms = experiment: Test of insecticidal activity against armyworms (leaf immersion); conditions: 600 mg/kg, 3-4 days
[5] = system: bean aphides (Aphis laburni Kaltenbach); experiment: Test of insecticidal activity against aphides (leaf immersion, checked after 96 h); conditions: Aphis, 96 h, read-out: Mortalities (%) against aphides

Structure (SMILES)	inhibition of growth at 50 mg/kg [1]	inhibition at 50 mg/kg (Rice bakanae disease)	inhibition at 50 mg/kg (Watermelon anthracnose)	inhibition of growth at 50 mg/kg (Potato late blight)	inhibition at 50 mg/kg (Wheat sheath blight)	inhibition of growth at 50 mg/kg (Cucumber fusarium wilt)	inhibition at 50 mg/kg (Wheat head blight)	inhibition at 50 mg/kg (Tomato early blight)	inhibition at 50 mg/kg (Apple ring rot)	inhibition of growth at 50 mg/kg [2]	inhibition of growth at 50 mg/kg (Sclerotinia rot of colza)	inhibition at 50 mg/kg (Rice sheath blight)	inhibition at 50 mg/kg [3]	mortality at 600 mg/kg (Maize borers)	mortality at 10 mg/kg [4]	mortality at 600 mg/kg (Cotton bollworms)	Mortalities (%) Armyworms (Armyworms)	mortality at 10 mg/kg [5]	mortality at 100 mg/kg [5]	mortality at 600 mg/kg [5]	other results
COC(=O)Nc1nc2ccccc2[nH]1 [Carbendazim, reference compound]	< 50%	< 50%	100%	100%	100%	< 50%	100%	< 50%	< 50%	< 50%	100%	100%	100%								
N#Cc1c(Cl)c(Cl)c(Cl)c(C#N)c1Cl [Chlorothalonil, reference compound]	73.3%	100%	91.3%	86.4%	100%	100%	< 50%	73.3%	100%	100%	< 50%	100%	91.3%								
CC1=NNC(=O)N(NS(C)(=O)=O)C1 [Ia-1, N-(6-methyl-3-oxo-2,3-dihydro-1,2,4-triazin-4(5H)-yl)-methylsulfonylamide]	26.3%	27.8%	20.8%	33.3%	63.6%	0%	13.3%	9.5%	31%	46.9%	31.7%	11.1%	20.8%	0%	55%	40%	5%	100%	100%	100%	mortality at 5 mg/kg [5]: 25%
CCS(=O)(=O)NN1CC(C)=NNC1=O [Ia-2, N-(6-methyl-3-oxo-2,3-dihydro-1,2,4-triazin-4(5H)-yl)-ethylsulfonamide]	15.8%	50%	33.3%	22.2%	63.6%	5%	20%	33.3%	20.7%	36.7%	56.7%	34.9%	29.2%	15%	20%	5%	10%	50%	90%	100%	
CCCS(=O)(=O)NN1CC(C)=NNC1=O [Ia-3, N-(6-methyl-3-oxo-2,3-dihydro-1,2,4-triazin-4(5H)-yl)-n-propylsulfonamide]	26.3%	16.7%	12.5%	22.2%	47.7%	0%	3.3%	0%	0%	24.5%	35%	14.3%	16.7%	20%	55%	10%	25%	40%	75%	95%	
